Measurements published in US12338256B2, “Aza-tetracyclic oxazepine compounds and uses thereof” (Genentech, Inc., priority 2022, dated 2025).
pIC50: −log10 of the molar value. Where two headings read alike, the source gives them in different places.

How the values were obtained:
[1] = test system: HPAC (homozygous mutant KRAS G12D human pancreatic cell line); assay: KRAS 3D-Cell Proliferation Assay, HPAC (Example 503); assay type: cell-based; settings: HPAC 3D culture, 7 days, CellTiter-Glo 3D, read-out: Prolif HPAC 3D ATP IC50
Outline: (§1)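 3D culture, ultra-low attachment wells; RPMI-1640/10% FBS/2 mM L-glutamine. Overnight settle, then compound series, 0.3% DMSO final, 7 d, 37° C, 5% CO2. Readout: CellTiter-Glo 3D luminescence. % inhibition vs DMSO (0%) and 1 μM staurosporine (100%); IC50 via 4-parameter Hill.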

[2] = test system: H1975 (KRAS wild type human lung adenocarcinoma cell line); assay: KRAS 3D-Cell Proliferation Assay, H1975 (Example 503); assay type: cell-based; settings: H1975 3D culture, 7 days, CellTiter-Glo 3D, read-out: Prolif H1975 3D ATP IC50
Outline: as §1

pIC50 [2]	SMILES	pIC50 ([1]; Homo sapiens, HPAC, 168 h)	pIC50 ([2]; Homo sapiens, NCI-H1975, 168 h)	pIC50 [1]
	Cc1nc(N)cc(-c2nc3c4c(nc(OCC5(CN6CC7COCC7C6)CC5)nc4c2F)N2C[C@H]4CC[C@H](N4)[C@H]2[C@H](C)O3)c1C(F)(F)F (stereo partly drawn) [Compound 205, 4-((5S,5aS,6S,9R)-1-Fluoro-5-methyl-12-((1-((tetrahydro-1H-furo[3,4-c]pyrrol-5(3H)-yl)methyl)cyclopropyl)methoxy)-5a,6,7,8,9,10-hexahydro-5H-4-oxa-3,10a,11,13,14-pentaaza-6,9-methanonaphtho[1,8-ab]heptalen-2-yl)-6-methyl-5-(trifluoromethyl)pyridin-2-amine]	8.47	5.95	
	Cc1cc(N)c(F)c(-c2nc3c4c(nc(OC[C@@H]5CC[C@H]6COCCN65)nc4c2F)N2C[C@H]4CC[C@H](N4)[C@H]2[C@H](C)O3)c1C=C(F)F [Compound 99, 4-(2,2-Difluorovinyl)-2-fluoro-3-((5S,5aS,6S,9R)-1-fluoro-12-(((6S,8aS)-hexahydro-1H-pyrrolo[2,1-c][1,4]oxazin-6-yl)methoxy)-5-methyl-5a,6,7,8,9,10-hexahydro-5H-4-oxa-3,10a,11,13,14-pentaaza-6,9-methanonaphtho[1,8-ab]heptalen-2-yl)-5-methylaniline]	7.40	5.30	
	C[C@@H]1Oc2nc(-c3cc(N)c(=O)n(C)c3C(F)(F)F)c(F)c3nc(OC[C@@]45CCCN4C[C@H](F)C5)nc(c23)N2C[C@H]3CC[C@H](N3)[C@@H]12 [Compound 184, 3-Amino-5-((5S,5aS,6S,9R)-1-fluoro-12-(((2R,7aS)-2-fluorotetrahydro-1H-pyrrolizin-7a(5H)-yl)methoxy)-5-methyl-5a,6,7,8,9,10-hexahydro-5H-4-oxa-3,10a,11,13,14-pentaaza-6,9-methanonaphtho[1,8-ab]heptalene-2-yl)-1-methyl-6-(trifluoromethyl)pyridin-2(1H)-one]	6.83	4.70	
5.94	Cc1c(F)c(N)cc(-c2nc3c4c(nc(OC[C@]5(CN6CCOCC6)CC5(F)F)nc4c2F)N2C[C@H]4CC[C@H](N4)[C@H]2[C@H](C)O3)c1C(F)(F)F [167 a]			8.80
	Cc1c(F)c(N)cc(-c2nc3c4c(nc(OCC56C[C@H](F)CN5C[C@@H](F)C6)nc4c2F)N2C[C@H]4CC[C@H](N4)[C@H]2[C@H](C)O3)c1C(F)(F)F [Compound 139, 5-((5S,5aS,6S,9R)-12-(((2S,6S)-2,6-Difluorotetrahydro-1H-pyrrolizin-7a(5H)-yl)methoxy)-1-fluoro-5-methyl-5a,6,7,8,9,10-hexahydro-5H-4-oxa-3,10a,11,13,14-pentaaza-6,9-methanonaphtho[1,8-ab]heptalen-2-yl)-2-fluoro-3-methyl-4-(trifluoromethyl)aniline]	6.93	5.07	
	Cc1c(Cl)c(N)cc(-c2nc3c4c(nc(OC[C@@]56CCCN5C[C@H](F)C6)nc4c2Cl)N2C[C@H]4CC[C@H](N4)[C@H]2[C@H](C)O3)c1C(F)(F)F [Compound 241, 2-Chloro-5-((5S,5aS,6S,9R)-1-chloro-12-(((2R,7aS)-2-fluorotetrahydro-1H-pyrrolizin-7a(5H)-yl)methoxy)-5-methyl-5a,6,7,8,9,10-hexahydro-5H-4-oxa-3,10a,11,13,14-pentaaza-6,9-methanonaphtho[1,8-ab]heptalen-2-yl)-3-methyl-4-(trifluoromethyl)aniline]	7.79	5.92	
	C[C@@H]1Oc2nc(-c3cc(N)c(F)cc3CC(F)F)c(F)c3nc(OC[C@@]45CCCN4C[C@H](F)C5)nc(c23)N2C[C@H]3CC[C@H](N3)[C@@H]12 [Compound 187, 4-(2,2-Difluoroethyl)-2-fluoro-5-((5S,5aS,6S,9R)-1-fluoro-12-(((2R,7aS)-2-fluorotetrahydro-1H-pyrrolizin-7a(5H)-yl)methoxy)-5-methyl-5a,6,7,8,9,10-hexahydro-5H-4-oxa-3,10a,11,13,14-pentaaza-6,9-methanonaphtho[1,8-ab]heptalene-2-yl)aniline]	7.46	4.72	
	Cc1c(F)c(N)cc(-c2nc3c4c(nc(OC[C@]56C[C@H](F)CN5C[C@H](F)C6)nc4c2F)N2C[C@H]4CC[C@H](N4)[C@H]2[C@H](C)O3)c1C(F)(F)F [Compound 141, 5-((5S,5aS,6S,9R)-12-(((2R,6S,7ar)-2,6-Difluorotetrahydro-1H-pyrrolizin-7a(5H)-yl)methoxy)-1-fluoro-5-methyl-5a,6,7,8,9,10-hexahydro-5H-4-oxa-3,10a,11,13,14-pentaaza-6,9-methanonaphtho[1,8-ab]heptalen-2-yl)-2-fluoro-3-methyl-4-(trifluoromethyl)aniline]	8.16	5.20	
	C[C@@H]1Oc2nc(N(C)c3ccc(F)c(N)c3)c(F)c3nc(OC[C@@]45CCCN4C[C@H](F)C5)nc(c23)N2C[C@H]3CC[C@H](N3)[C@@H]12 [Compound 193, 4-fluoro-N^1-((5S,5aS,6S,9R)-1-fluoro-12-(((2R,7aS)-2-fluorotetrahydro-1H-pyrrolizin-7a(5H)-yl)methoxy)-5-methyl-5a,6,7,8,9,10-hexahydro-5H-4-oxa-3,10a,11,13,14-pentaaza-6,9-methanonaphtho[1,8-ab]heptalen-2-yl)-N^1-methylbenzene-1,3-diamine]	5.70	4.70	
	Cc1nc(N)cc(-c2nc3c4c(nc(OCC5(CN6CCC(F)(F)C6)CC5)nc4c2F)N2C[C@H]4CC[C@H](N4)[C@H]2[C@H](C)O3)c1C(F)(F)F [Compound 288, 4-((5S,5aS,6S,9R)-12-((1-((3,3-difluoropyrrolidin-1-yl)methyl)cyclopropyl)methoxy)-1-fluoro-5-methyl-5a,6,7,8,9,10-hexahydro-5H-4-oxa-3,10a,11,13,14-pentaaza-6,9-methanonaphtho[1,8-ab]heptalene-2-yl)-6-methyl-5-(trifluoromethyl)pyridin-2-amine]	7.73	5.01	
	Cc1c(F)c(N)cc(-c2nc3c4c(nc(OCC[C@@H]5CC[C@H]6COCCN56)nc4c2F)N2C[C@H]4CC[C@H](N4)[C@H]2[C@H](C)O3)c1C(F)(F)F [Compound 154, 2-Fluoro-5-((5S,5aS,6S,9R)-1-fluoro-12-(2-((6S,8aS)-hexahydro-1H-pyrrolo[2,1-c][1,4]oxazin-6-yl)ethoxy)-5-methyl-5a,6,7,8,9,10-hexahydro-5H-4-oxa-3,10a,11,13,14-pentaaza-6,9-methanonaphtho[1,8-ab]heptalen-2-yl)-3-methyl-4-(trifluoromethyl)aniline]	7.69	5.39	
	Cc1nc(N)cc(-c2nc3c4c(nc(OC[C@]56CCCN5CC(F)(F)C6)nc4c2F)N2C[C@H]4CC[C@H](N4)[C@H]2[C@H](C)O3)c1C(F)(F)F [Compound 217, 4-((5S,5aS,6S,9R)-12-(((R)-2,2-difluorotetrahydro-1H-pyrrolizin-7a(5H)-yl)methoxy)-1-fluoro-5-methyl-5a,6,7,8,9,10-hexahydro-5H-4-oxa-3,10a,11,13,14-pentaaza-6,9-methanonaphtho[1,8-ab]heptalen-2-yl)-6-methyl-5-(trifluoromethyl)pyridin-2-amine]	7.41	4.90	
	Cc1c(F)c(N)cc(-c2nc3c4c(nc(OCC5(CN6C[C@@H]7C[C@H]6CO7)CC5)nc4c2F)N2C[C@H]4CC[C@H](N4)[C@H]2[C@H](C)O3)c1C(F)(F)F [Compound 169, 5-((5S,5aS,6S,9R)-12-((1-(((1S,4S)-2-Oxa-5-azabicyclo[2.2.1]heptan-5-yl)methyl)cyclopropyl)methoxy)-1-fluoro-5-methyl-5a,6,7,8,9,10-hexahydro-5H-4-oxa-3,10a,11,13,14-pentaaza-6,9-methanonaphtho[1,8-ab]heptalene-2-yl)-2-fluoro-3-methyl-4-(trifluoromethyl)aniline]	9.04	6.34	
	Cc1c(F)c(N)cc(-c2nc3c4c(nc(OC[C@@H]5CC[C@H]6COCCN65)nc4c2F)N2C[C@H]4CC[C@H](N4)[C@H]2[C@H](C)O3)c1CC(F)(F)F [Compound 113, 2-fluoro-5-((5S,5aS,6S,9R)-1-fluoro-12-(((6S,8aS)-hexahydro-1H-pyrrolo[2,1-c][1,4]oxazin-6-yl)methoxy)-5-methyl-5a,6,7,8,9,10-hexahydro-5H-4-oxa-3,10a,11,13,14-pentaaza-6,9-methanonaphtho[1,8-ab]heptalen-2-yl)-3-methyl-4-(2,2,2-trifluoroethyl)aniline]	8.54	5.93	
	Cc1c(F)c(N)cc(-c2nc3c4c(nc(OCC56COC(CN5C)C6)nc4c2F)N2C[C@H]4CC[C@H](N4)[C@H]2[C@H](C)O3)c1C(F)(F)F [Compound 132, 2-Fluoro-5-((5S,5aS,6S,9R)-1-fluoro-5-methyl-12-((5-methyl-2-oxa-5-azabicyclo[2.2.1]heptan-4-yl)methoxy)-5a,6,7,8,9,10-hexahydro-5H-4-oxa-3,10a,11,13,14-pentaaza-6,9-methanonaphtho[1,8-ab]heptalen-2-yl)-3-methyl-4-(trifluoromethyl)aniline]	7.15	4.85	
	Cc1nc(N)cc(-c2nc3c4c(nc(OCC5(CN6CCC7(CCCO7)C6)CC5)nc4c2F)N2C[C@H]4CC[C@H](N4)[C@H]2[C@H](C)O3)c1C(F)(F)F (stereo partly drawn) [Compound 287, 4-((5S,5aS,6S,9R)-12-((1-((1-oxa-7-azaspiro[4.4]nonan-7-yl)methyl)cyclopropyl)methoxy)-1-fluoro-5-methyl-5a,6,7,8,9,10-hexahydro-5H-4-oxa-3,10a,11,13,14-pentaaza[6,9]methanonaphtho[1,8-ab]heptalene-2-yl)-6-methyl-5-(trifluoromethyl)pyridin-2-amine]	8.24	5.86	
	Cc1c(F)c(N)cc(-c2nc3c4c(nc(OC[C@@]56CCCN5C[C@H](F)C6)nc4c2F)N2C[C@H]4CC[C@H](N4)C2C(C(F)F)O3)c1C(F)(F)F (single isomer, unassigned) [238 (isomer 1)]	5.70	4.87	
